Test results reported in paper PMC11209911 (ACS Omega, 2024).

Target: α-glucosidase
Assay: α-glucosidase inhibitor screening kit
Format: biochemical

## C=C/C=C(\C)CC[C@@H]1C[C@@H](O)CC(=O)O1 [30b, (4R,6R)-4-Hydroxy-6-((E)-3-methylhexa-3,5-dien-1-yl)tetrahydro-2H-pyran-2-one]
  IC50: 66.1 µM
